# Experimental data: PMC10906075 (2024)
# Assays:
# [1] = test system: Phe peptide (Phe1) (designed); assay: OWLS; conditions: 1x PBS, thiol for surface coupling (end not stated), OWLS: 1x PBS, nanopore: PBS (~150 mM salt), 0.5-1.5 V, pH and temperature not given
# [2] = test system: Phe peptide (Phe1) (designed); assay: interface nanopore; conditions: PBS, 1.5 V, 1.0 uN; thiol for surface coupling (end not stated); OWLS: 1x PBS; nanopore: PBS (~150 mM salt), 0.5-1.5 V; pH and temperature not given
# [3] = test system: FAM-labeled phenylalanine aptamer (DNA, aptamer) CTCTCGGGACGACGAGGCTGGATGCATTCGCCGGATGTTCGATGTCGTCCC; assay: strand-displacement fluorescence assay (FAM/dabcyl); conditions: PBS (~150 mM salt), 2 mM MgCl2, dabcyl quencher strand GTCGTCCCGAGAG (S4) displaced, 50 nM aptamer, 150 nM quencher, ~40 min, ambient
binding [3],Molecule,further results
–,CGACGAGGCTGGATGCATTCGCCGGATGTTCGATGTCG [phenylalanine aptamer],binding signal (ng/cm2 adsorbed mass) ([1]; peptide retained after buffer rinse): 198; binding signal (ms translocation time) [2]: 190
yes,NC(=O)[C@@H](N)Cc1ccccc1,–
–,ATTGCTATTCACCGGCGCGGGGCTGGGGCATCGGTAAT [scrambled sequence],binding signal (ng/cm2 adsorbed mass) ([1]; attributed to nonspecific electrostatic binding): 140; binding signal (ms translocation time) [2]: 11
weak,NCCc1ccccc1,–
no,N[C@@H](Cc1ccc(O)cc1)C(=O)O,–
yes,N[C@@H](Cc1ccccc1)C(=O)O,–
no,N[C@@H](Cc1c[nH]c2ccccc12)C(=O)O,–
